The source of these data is patent US11661581B2, “Use of CDK inhibitors to enhance growth and self-renewal of progenitor cells” (University of Massachusetts, priority 2017, dated 2023).

Molecules are shown by their SMILES. “Also recorded” adds a separate entry of the source.

Experiment [1] deals with mouse bone marrow erythroid progenitors. Description: Mouse adult bone marrow erythroid self-renewal culture, amplification of cell number. In kind it is cell-based. The note with it: for growth of mouse bone marrow erythroid progenitors (in words): drug at five times its respective IC50, two independent experiments. Here is the method:
(§1) Adult bone marrow mononuclear cells (StemCell Technologies) (A), mouse fetal liver (B) and mouse adult bone marrow (C-D), were cultured in the presence of Dex, Epo, SCF and IGF-1. Dex slows down and delays the transition from self-renewal to differentiation of early CFU-e progenitors, leading to their numerical amplification.
The doses chosen for all these inhibitors were approximately 5 times the IC50 for each drug.

The subject of experiment [2] is mouse bone marrow CFU-e progenitors. The experiment in a line: CFU-e colony formation in semi-solid medium from mouse bone marrow cultures. The format is cell-based. As to conditions: for increase in absolute CFU-e numbers relative to control cultures: day 5 of culture. Here is the method: (17B) Mouse bone marrow erythroid progenitors, treated as described in A, but plated on day 5 of the culture in semi-solid medium, CFU-e colonies scored 72 hours later.

Experiment [3] has as its system p57KIP2-deficient fetal liver CFUe. Description: Dex-dependent CFUe self-renewal (expansion) culture of p57KIP2-deficient fetal liver cells. The note with it: self-renewal medium Epo+Dex; roscovitine 0.5 μM. The format is cell-based, mouse. As to the method: (§2) To isolate Ter119-negative cells, fresh fetal liver cells were stained with biotin-conjugated anti-Ter119 (BD Biosciences 553672) at 1:100, followed by EasySep magnetic separation (StemCell Technologies). Cells were grown in Stem-Pro-34 serum free medium supplemented with nutrient supplement (Invitrogen), 1 μM dexamethasone (Sigma), 100 ng/ml SCF (PeproTech), 40 ng/ml IGF1 (PeproTech), 2 U/ml Epo, 100 U/ml penicillin/streptomycin (Invitrogen) and 2 mM L-glutamine (Invitrogen). Cells were maintained at 2×10^6 cells/ml, and supplemented daily with fresh medium and growth factors. To test the effect of roscovitine on p57^KIP2−/− fetal liver cells in expansion culture, cells were grown and maintained as described above with the additional supplemented daily of 0.5 μM roscovitine (EMD Millipore 557360). To switch to differentiation medium, after being maintained in expansion medium for 4 to 5 days, Ter119-negative cells were isolated again using EasySep magnetic beads (StemCell Technologies). Cells were then transferred to IMDM (L-glutamine, 25 mM HEPES) (Gibco), 20% fetal calf serum (Gibco, HyClone), 100 U/ml penicillin/streptomycin (Invitrogen), […] β-mercapthoethanol (Sigma) and 2 U/ml Epo.
We also investigated whether CDK inhibition could underlie the essential role that p57^KIP2 plays in maintaining the viability of self-renewing CFUe.

In experiment [4] the test system is wild-type CFU-e. The experiment in a line: Dex-dependent CFUe self-renewal (expansion) culture of wild-type fetal liver cells. The format is cell-based, mouse. As to the method: as §2
In three independent experiments, wild-type cells growing in roscovitine were amplified an average of 1.92±0.43 fold more than wild-type cells without treatment.

For experiment [5], the system named is human adult bone marrow mononuclear cells (erythroid progenitors). The experiment in a line: Human bone marrow erythroid self-renewal culture, amplification of cell number. The format is cell-based. The note with it: peak on day 16; pooled from two independent experiments; roscovitine concentration not stated (1, 5 or 10 μM). As to the method: as §1
(§3) We cultured hematopoietic tissue cells from either mouse adult bone marrow, mouse fetal liver (mid-gestation, embryonic day 13.5), or human adult bone marrow (StemCell Technologies, Vancouver, Canada), under conditions that facilitate self-renewal of colony-forming-unit-erythroid (CFU-e), in which the following are added to the culture medium: erythropoietin (Epo, 2 Units/ml), Stem Cell Factor (SCF, 100 ng/ml), Insulin-like Growth Factor 1 (IGF1, 40 ng/ml) and dexamethasone (Dex, 1 μM). Control cultures contained no other specialized additives; parallel cultures had, in addition, the CDK inhibitor roscovitine (1, 5 or 10 μM) (Pippin et al., J Clin Invest 100, 2512-2520 (1997); Meijer et al., European Journal of Biochemistry 243, 527-536 (1997)). […]

The test system of experiment [6] is mouse bone marrow self-renewing cultures. The experiment in a line: Flow cytometry and BrdU cell cycle analysis of mouse bone marrow self-renewing cultures. In kind it is cell-based. Here is the method:
(18A) Flow cytometric analysis of mouse bone marrow self-renewing cultures, on day 6 of culture. […] The overall viability of cells in roscovitine-treated cultures was increased (not shown). Bottom panels: corresponding cell cycle analysis of cells in each culture. Cells were pulsed with BrdU at 33 μM for 25 min before analysis.
We examined cells in the self-renewing cultures using flow-cytometry. Cell surface markers CD71 and Ter119 denote the differentiation stage of erythroid progenitors and precursors in mouse hematopoietic tissue^81,41. […] By contrast, control cultures contained a substantial fraction (35%) of Ter119+ cells.
(A flow cytometer gives signals particle by particle.)

For experiment [7], the system named is human bone marrow self-renewing cultures. The experiment in a line: Flow cytometry of human bone marrow self-renewing cultures. In kind it is cell-based. As to conditions: day 10 of culture. From the text: (18B) Flow cytometric analysis of human bone marrow self-renewing cultures, on day 10 of culture.
For experiment [8], the system named is mouse fetal liver erythroid cells. Description: Mouse fetal liver erythroid self-renewal culture (Example 2), amplification of cell number. In kind it is cell-based. As to conditions: Dex, Epo, SCF, IGF-1. As to the method:
as §1, §3

Experiment [9] concerns p57KIP2-/- CFUe. Description: CFUe colony potential of p57KIP2-/- cells from Dex self-renewal cultures. The note with it: day 11 of culture, 10^5 cells per dish, colonies scored 72 hours after plating.
Method: (12B) Analysis of CFUe potential in Dex-dependent self-renewal cultures of p57^KIP2−/− cells treated with roscovitine (See FIG. 5I). On day 11 of culture, cells amplified in the presence or absence of roscovitine were plated at 10^5 cells per dish in Epo-containing semi-solid medium. The number of CFUe colonies formed per dish was scored 72 hours following plating.
Experiment [10] relates to human bone-marrow CFU-e progenitors. The experiment in a line: CFU-e colony formation in semi-solid medium from human bone marrow cultures. The note with it: cells taken on day 11 of culture.
Method: (17A) Human bone-marrow erythroid progenitors were amplified in cultures as in FIG. 1A. On day 11 of culture, cells were plated in semi-solid methylcellulose medium under differentiation conditions (in the presence of Epo and in the absence of Dex or SCF). CFU-e colonies were scored at 72 hours using diaminobenzidine staining to identify hemoglobinized cells. The absolute number of CFU-e progenitors obtained from the same initial starting number in each culture is shown. All statistically significant differences are noted (two-tailed t test, unequal variance).

On to `CC(=O)c1c(C)c2cnc(Nc3ccc(N4CCNCC4)cn3)nc2n(C2CCCC2)c1=O` [PD0332991], for which the “amplification of erythroid cell number versus control cultures” value in [1] (0.1 μM) was “either no significant effect or an inhibitory effect”. The “growth of mouse bone marrow erythroid progenitors (in words)” value (“growth” below) in [1] is listed as “growth inhibition”. Also, the “absolute number of CFU-e progenitors by colony formation assay versus control” value in experiment [2] (0.1 μM) is “either no significant effect or an inhibitory effect”.
For `NS(=O)(=O)c1ccc(N/N=C2\C(=O)Nc3ccc(Br)cc32)cc1` [SC-221409], the “amplification of erythroid cell number versus control cultures” value in [1] (0.5 μM) is recorded as “significant increase”. Besides, the “growth” value in [1] is reported as “improved growth”. In addition, the “absolute number of CFU-e progenitors by colony formation assay versus control” value in [2] (0.5 μM) is “significant increase”.
Consider `CC[C@H](CO)Nc1nc(NCc2ccccc2)c2ncn(C(C)C)c2n1` [roscovitine], for which the “Dex-dependent self-renewal and expansion of p57KIP2-deficient CFUe” value in experiment [3] is recorded as “rescued self-renewal; also recorded: rescue the self-renewal; also recorded: successfully rescued”. The “amplification of wild-type CFU-e (in words)” value in experiment [4] (Dex cultures) is reported as “enhanced the amplification; also recorded: also enhanced”. In addition, the “amplification of wild-type cells relative to wild-type cells without treatment” value in [4] (average of three independent experiments) is 1.92±0.43 fold. In addition, the “progenitors from wild-type cells relative to absence of drug” value in experiment [4] (period of 7-9 days) amounted to 2 fold. In experiment [4] (roscovitine 0.5 μM), the “normal expansion of CFUe cultures derived from wild-type littermates” value is “little effect”. Moreover, the “peak amplification of cell number” value in experiment [5] is 9 fold. Also, the “growth” value in experiment [1] is recorded as “improved growth”. Besides, the “cell numbers in mouse adult bone marrow cultures (in words)” value in experiment [1] (roscovitine 1, 5 or 10 μM) is listed as “significantly higher cell numbers”. In addition, the “increase in absolute CFU-e numbers relative to control cultures” value came to 62% in experiment [2] (1 μM) and 40% in experiment [2] (5 μM). Besides, the “number of S phase cells (in words)” value in experiment [6] (BrdU 33 μM pulse for 25 min) is reported as “fewer S phase cells”. The “speed of S phase, rate of BrdU incorporation (BrdU MFI in S phase gate)” value is listed as “substantially slower” in experiment [6] (BrdU 33 μM pulse for 25 min) and “slower S phase” in experiment [6] (BrdU 33 μM pulse for 25 min, listed as Roscovitine). For the same molecule, the “terminally-differentiating Ter119+ erythroblasts compared with control (in words)” value in experiment [6] (day 6 of culture) was “relative absence”. Also, in experiment [6] (day 6 of culture, data not shown), the “overall viability of cells in culture” value is listed as “increased”. In [6] (mouse bone marrow cultures, roscovitine-treated), the “cells in the culture expressing Ter119” value came out at 6%. The “cells expressing glycophorin A (in words)” value is “fewer cells are glycophorin A positive” in experiment [7] and “lower number” in experiment [7] (listed as Roscovitine). Besides, the “amplification of erythroid cell number in mouse fetal liver cultures (in words)” value in experiment [8] is given as “increased amplification; also recorded: significantly higher cell numbers”. For the same molecule, the “CFUe colony forming potential of treated p57KIP2-/- cells versus untreated cells” value in experiment [9] is on record as “retained the same potential; also recorded: preserved CFUe colony potential”. Moreover, the “increase in absolute number of CFU-e progenitors over control cultures” value in experiment [10] (1 μM) is 3.9 fold. For the same molecule, the “increase in absolute number of CFU-e progenitors relative to control” value in [10] (5 μM) came to 4.5 fold.
